Test results from patent publication US5418224A, “4,13-dioxabicyclo[8.2.1]tridecenone compounds and pharmaceutical compositions containing them” (Kali-Chemie Pharma GmbH, priority 1992, dated 1995).

What was measured:
beagle dogs [1] = assay: In vivo determination of the effect on the resting tone of the esophagus sphincter (pull-through manometry); conditions: conscious fasting beagle dogs, 0.251 μmole/kg intraduodenally
Experimental: 3. In vivo determination of the effect of the substances on the resting tone of the esophagus sphincter.
This determination is carried out on trained, conscious, fasting beagle dogs which, before the test, have each been given an esophagus fistula and a duodenal cannula. The pressure of the lower esophagus sphincter is measured by means of a perfused catheter system which has a lateral opening and which is connected to a pressure transducer and a recorder. The catheter is passed through the esophagus fistula into the stomach and then slowly withdrawn manually (=pull-through manometry). A peak is recorded when the catheter part with the lateral opening passes through the high-pressure zone of the lower esophagus sphincter. The pressure in mm Hg is determined from this peak.
In this way, initially the basal pressure of the esophagus sphincter is determined as control value. Subsequently, the test substance is administered intraduodenally and, after 15 minutes, the pressure at the lower esophagus sphincter is measured at 2-minute intervals for a period of 46 minutes. The increase in the pressure after administration of test substance compared with the previously determined basal pressure is calculated.

motilin receptors = biological target: T1, motilin receptors (Oryctolagus cuniculus, UniProt G1T803); assay: Binding capacity to motilin receptors: displacement of 125-iodine-labelled motilin, rabbit antrum crude membrane preparation; conditions: rabbit antrum crude membrane fraction, iodinated motilin 50 pM, 30° C., 60 minutes; read-out: pIC50 value (50% inhibition of the specific binding of the iodinated motilin to the motilin receptors) (converted)
T1 construct: fraction of a tissue homogenate from rabbit antrum; from tissue; host or cells: rabbit antrum, mucosa removed, crude membrane preparation
T1 sequence (G1T803 1-400): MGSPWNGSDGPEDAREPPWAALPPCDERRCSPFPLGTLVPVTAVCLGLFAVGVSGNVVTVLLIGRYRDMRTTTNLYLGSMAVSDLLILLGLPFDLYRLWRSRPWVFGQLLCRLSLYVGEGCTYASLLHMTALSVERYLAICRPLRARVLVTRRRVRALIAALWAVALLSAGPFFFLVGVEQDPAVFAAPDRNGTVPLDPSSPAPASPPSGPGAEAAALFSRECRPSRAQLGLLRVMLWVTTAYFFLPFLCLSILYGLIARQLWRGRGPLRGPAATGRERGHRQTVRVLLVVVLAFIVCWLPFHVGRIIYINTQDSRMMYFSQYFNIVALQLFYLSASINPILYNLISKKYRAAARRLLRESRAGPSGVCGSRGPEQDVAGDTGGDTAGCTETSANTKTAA
Experimental: 1. Determination of the binding capacity of the test substances to motilin receptors.
The affinity of the compounds of the formula I for motilin receptors is measured in vitro on a fraction of a tissue homogenate from rabbit antrum. The displacement of radioactively labelled iodinated motilin from motilin receptor binding by the test substances is determined.
The receptor binding studies were carried out by a modification of the method of Borman et al. (Regulatory Peptides 15 (1986), 143-153). To prepare the ^125 iodine-labelled motilin, motilin is iodinated enzymatically using lactoperoxidase in a known manner, for example analogously to the method described by Bloom et al. (Scand. J. Gastroenterol. 11 (1976) 47-52). […]
For the binding test, 200 μl of the crude membrane fraction (0.5-1 mg of protein) in 400 μl of a buffer solution A (50 mM tris-HCl buffer, 1.5% BSA, 10 mM MgCl2, pH 8.0) were incubated with 100 μl of iodinated motilin diluted in buffer solution B (10 mM tris-HCl buffer, 1% BSA, pH 8) (final concentration 50 pM) at 30° C. for 60 minutes. […] The residue obtained as pellet after the centrifugation was washed with buffer solution B and counted in a gamma counter. […] From this the corresponding pIC50 value was calculated.

beagle dogs [2] = assay: In vivo determination of the effect on the rate of gastric emptying
Experimental: 2. In vivo determination of the effect of the substances on the rate of gastric emptying.
The determination of the rate of gastric emptying was carried out on beagle dogs which, before the test, had undergone surgical establishment of an esophagus fistula and implantation of a duodenal cannula. 15 minutes after duodenal administration of the test substances, the fasting conscious dogs were given 285 g of a semisolid caloric test meal through the esophagus fistula. The contents emptied from the stomach were collected through the duodenal cannula at 15-minute intervals. From the collected amounts of stomach contents, the time within which 50% emptying of the stomach takes place was calculated. The time is reported as measure of gastric emptying.

IC50 (motilin receptors): 4.79 nM
Compound: CC[C@@H](O)[C@@](C)(O)[C@@H]1OC(=O)[C@H](C)[C@@H](O[C@H]2C[C@@](C)(OC)[C@@H](O)[C@H](C)O2)[C@H](C)[C@@H](O[C@@H]2O[C@H](C)C[C@H](N(C)C(C)C)[C@H]2O)[C@@]2(C)CC(C)=C(O2)[C@@H]1C [Example 1, [2R,3R(2R',3R'),6R,7S,8S,9R,10R]-3-(2',3'-dihydroxypent-2'-yl)-7-[(2,6-dideoxy-3-C-methyl-3-0-methyl-α-L-ribo-hexopyranosyl)-oxy]-9-[(3,4,6-trideoxy-3-(N-methyl-N-isopropylamino)-β-D-xylo-hexopyranosyl)-oxy]-2,6,8,10,12-pentamethyl-4,13-dioxabicyclo[8.2.1]tridec-12-en-5-one]
change of basal tone of the esophagus sphincter (beagle dogs [1]; compared with basal pressure): more than doubled
persistence of the effect on esophagus sphincter tone (beagle dogs [1]; throughout duration of the test): ≥ 45 min
effect on gastric emptying (in words) (beagle dogs [2]; beagle dogs, dose of 0.46 μmole/kg, duodenal administration): distinct stimulation of gastric emptying
time for 50% emptying of the stomach (beagle dogs [2]; fasting conscious beagle dogs, 0.46 μmole/kg duodenal, 15 minutes before semisolid caloric test meal, control animal group 46 minutes): 27 min
